Results taken from patent publication US9248124B2, “Use of inhibitors of IκB kinase for the treatment of cancer” (Millennium Pharmaceuticals, Inc., priority 2001, dated 2016).

How the values were obtained:
Assay type in all cases: cell-based, human
[1] = system: IκBα phosphorylation and degradation in patient MM cells; assay: Immunoblot of IκBα phosphorylation and degradation triggered by TNFα in patient cells; details: 10 μM for 90 min, TNFα 5 ng/mL, FIG. 1C
Procedure: Dex-sensitive (MM.1S) human MM cell line was kindly provided by Dr. Steven Rosen (Northwestern University, Chicago, Ill.). RPMI8226 and U266 human MM cells were obtained from American Type Culture Collection (Rockville, Md.). All MM cell lines cultured in RPMI-1640 containing 10% fetal bovine serum (FBS, Sigma Chemical Co., St. Louis, Mo.), […], 100 U/mL penicillin (Pen) and 100 μg/mL streptomycin (Strep) (GIBCO, Grand Island, N.Y.). Patient MM cells were purified from patient BM aspirates using RosetteSep separation system (StemCell Technologies, Vancouver, Canada). The purity of MM cells was confirmed by flow cytometry using PE-conjugated anti-CD138 antibody (Beckton Dickinson Co.).
MM cells were cultured with PS-341 or compound 1; harvested; washed; and lysed using lysis buffer: 50 mM Tris-HCl (pH 7.4), 150 mM NaCl, 1% NP-40, 5 mM EDTA, 5 mM NaF, 2 mM Na3VO4, 1 mM PMSF, 5 μg/mL leupeptin, and 5 μg/mL aprotinin. For detection of phospho-IκBα, IκBα, phospho-MAPK, phospho-STAT3, ERK2 or alpha-tubulin, cell lysates were subjected SDS-PAGE, transferred to PVDF membrane (Bio-Rad Laboratories, Hercules, Calif.), and immunoblotted with anti-phospho-IκBα, -IκBα, -phospho-MAPK, or -phospho-STAT3 Abs (Cell Signaling, Beverly, Mass.), and anti-alpha-tubulin (Sigma) Abs.
Inhibition of IκBα phosphorylation by compound 1 was assayed in MM.1S and patient MM cells triggered by TNFα. […]

[2] = system: NF-κB activation in MM.1S cells; assay: Electrophoretic mobility shift assay (EMSA) of NF-κB activation in MM.1S cells
Procedure: Electrophoretic mobility shift analyses (EMSA) were carried out as in previous studies (Hideshima et al., Oncogene 20:4519 (2001); Hideshima et al., Cancer Res. 61:3071 (2001)). Briefly, MM.1S cells were pre-incubated with PS-341 (5 μM for 1 h) and compound 1 (10 μM for 90 min) before stimulation with TNFα (5 ng/mL) for 10 or 20 min. Cells were then pelleted, resuspended in 400 μL of hypotonic lysis buffer (20 mM HEPES, pH 7.9, 10 mM KCl, 1 mM EDTA, 0.2% Triton X-100, 1 mM Na3VO4, 5 mM NaF, 1 mM PMSF, 5 μg/mL leupeptin, 5 μg/mL aprotinin), and kept on ice for 20 min. After centrifugation (14000 g for 5 min) at 4° C., the nuclear pellet was extracted with 100 μL hypertonic lysis buffer (20 mM HEPES, pH 7.9, 400 mM NaCl, 1 mM EDTA, 1 mM Na3VO4, 5 mM NaF, 1 mM PMSF, 5 μg/mL leupeptin, 5 μg/mL aprotinin) on ice for 20 min. After centrifugation (14000 g for 5 min) at 4° C., the supernatant was collected as nuclear extract. […]
Since NF-κB activation requires phosphorylation, ubiquitination, and degradation of IκBα, we next examined whether compound 1 could inhibit NF-κB activation, assessed by EMSA. […]

[3] = system: ICAM-1 expression on MM.1S and RPMI8226 cells; assay: Flow cytometry of TNFα-induced ICAM-1 expression on MM cells; details: TNFα 5 ng/mL, compound 1 10 μM, 24 h, FIG. 10
Procedure: For cell cycle analysis, MM cells cultured for 24-48 h in compound 1 (10 μM), Dex (1 μM); IL-6 (20 ng/mL), or control media were harvested, washed with phosphate-buffered saline (PBS), fixed with 70% ethanol, and treated with 10 μg/mL of RNase (Roche Diagnostics Corp., Indianapolis, Ind.). Cells were then stained with propidium iodine (PI, Sigma) (5 μg/mL). For detection of ICAM-1 expression, MM cells cultured in TNFα (5 ng/mL) in the presence or absence of compound 1 (10 μM) were harvested, washed with PBS, and stained with mouse IgG isotype control or FITC-conjugated mouse anti-human CD54 Ab. Both cell cycle profile and ICAM-1 expression were determined using an Epics (Coulter Immunology, Hialeah, Fla.) flow cytometer, as in prior studies (Hideshima et al., Oncogene 20:4519 (2001)).

[4] = system: MM.1S cells; assay: Growth inhibition / viability by MTT assay in MM.1S cells with TNFα
Procedure: The inhibitory effect of PS-341 and compound 1 on MM growth was assessed by measuring 3-(4,5-dimethylthiazol-2-yl)-2,5-diphenyl […] bromide (MTT) dye absorbance of the cells. Cells from 48 h cultures were pulsed with […] of 5 mg/mL MTT to each well for the last 4 h of 48 h cultures, followed by 100 μL isopropanol containing 0.04N HCl. Absorbance was measured at 570 nm using a spectrophotometer (Molecular Devices Corp., Sunnyvale Calif.).

O=C(Nc1cc(Cl)cc2c1[nH]c1cnccc12)c1cccnc1 [compound 1, N-(6-chloro-9H-β-carbolin-8-yl)-nicotinamide]
phosphorylation and degradation of IκBα triggered by TNFα [1]: inhibited
NF-κB activation triggered by TNFα (EMSA), dose dependence ([2]; compound 1 2.5-10 μM for 90 min, dose-dependent fashion, FIG. 6C): inhibits
NF-κB activation (EMSA) ([2]; pre-treated 10 μM for 90 min, TNFα 5 ng/mL for 0-20 min, FIG. 2): completely inhibited
TNFα-induced upregulation of ICAM-1 expression [3]: inhibits
inhibition at 10 µM ([4]; Homo sapiens, MM1.S, TNFα 1 ng/mL in the presence of 10 μM compound 1, 48 h): 60%
viability of MM.1S cells (MTT assay) ([4]; TNFα 0.2 and 1 ng/mL in the presence of compound 1 2.5-10 μM, 48 h, p<0.001, FIG. 11): significantly decreased
